# Where a name gives a salt, the structure may show the parent alone.
# Legend:
# MASP-2 (CCP1-CCP2-SP) = MASP-2 (CCP1-CCP2-SP) (Homo sapiens (Human), UniProt O00187); experiment: Enzymatic Assay for MASP-2 (fluorogenic substrate); format: biochemical
# human α-thrombin = human α-thrombin (Homo sapiens (Human), UniProt P00734); experiment: Enzymatic Assay for Thrombin (Boc-VPR-AMC); format: biochemical
# MASP-2 CCP2-SP = MASP-2 CCP2-SP (Homo sapiens (Human), UniProt O00187); experiment: MASP-2 co-crystallization, X-ray crystallography and structure analysis (H-bonds, van der Waals contacts); design: van der Waals contact distance, MASP-2 HIS 483 atom CD2 / van der Waals contact distance, MASP-2 HIS 483 atom NE2 / van der Waals contact distance, SER 654 C to compound atom / van der Waals contact distance, SER 654 O to compound atom / van der Waals contact distance, TRP 655 C to compound atom / van der Waals contact distance, MASP-2 GLY 528 atom CA / van der Waals contact distance TRP 655 atom CZ3 / van der Waals contact distance TRP 655 atom N / van der Waals contact distance TRP 655 atom CE3 / van der Waals contact distance GLY 656 atom C / van der Waals contact distance GLY 656 atom CA / van der Waals contact distance GLY 656 atom O / van der Waals contact distance, MASP-2 TYR 607 atom CD1 / van der Waals contact distance, MASP-2 PRO 606 atom O / d(C3,CA1) / d(CA1,N1)2 / d(H4,O1) / d(H4,O2) / d(O1,O2) / d(CA1,O2) / d(CA6,O1) / d(CA6,O2) / d(CA1,C5) / d(O2,H3) / d(N2,C2) / d(CA5,N2) / d(N2,C4) / d(N2,C6) / d(N2,CA3) / d(N2,O3) / d(O4,H2): unit not given beside the values; settings: for H-bond distance to MASP-2 GLY 656 atom N: GLY 656 N; for H-bond distance to MASP-2 SER 654 atom O: SER 654 O; for van der Waals contact distance TRP 655 atom N: MASP-2 TRP 655 N;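 for Ligand-pharmacophore element distance, pharmacophore element C2: distance from averaged pharmacophore element to bound ligand; missing value means element absent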;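 for Ligand-pharmacophore element distance, pharmacophore element C3: distance from averaged pharmacophore element to bound ligand; missing value means element absent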;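 for Ligand-pharmacophore element distance, pharmacophore element C4: distance from averaged pharmacophore element to bound ligand; missing value means element absent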;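 for Ligand-pharmacophore element distance, pharmacophore element C5: distance from averaged pharmacophore element to bound ligand; missing value means element absent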
# Procedure, shortened: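 Human MASP-2 CCP2-SP (± 6His) expressed in E. coli and crystallized; crystals soaked in crystallization solution containing inhibitor, cryoprotected with 20% glycerol or frozen directly. Synchrotron data at 1.0 wavelength; molecular replacement from 1Q3X, partial refinement; one ligand pose analyzed; LigPlot+ contacts may include H-bonds.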
# [1] = Table A5-1 pharmacophore: distance between elements, S2/S1 region
# [2] = Table A5-2 pharmacophore distance, S3/S4 region
# [3] = Table A7-1, between pharmacophore elements of the bound compound
# [4] = Table A8-6, nearest protein atom in cell to the left
# Sequence of MASP-2 CCP2-SP (O00187 445-686): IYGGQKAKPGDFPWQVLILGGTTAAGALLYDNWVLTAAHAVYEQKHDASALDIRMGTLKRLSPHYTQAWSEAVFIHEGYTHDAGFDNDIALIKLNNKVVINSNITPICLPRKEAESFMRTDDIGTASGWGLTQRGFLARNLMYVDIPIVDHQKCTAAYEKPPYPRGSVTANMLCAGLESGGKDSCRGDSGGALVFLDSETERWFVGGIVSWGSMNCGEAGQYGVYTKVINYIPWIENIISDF
# Sequence of MASP-2 CCP2-SP (O00187 364-432 partner): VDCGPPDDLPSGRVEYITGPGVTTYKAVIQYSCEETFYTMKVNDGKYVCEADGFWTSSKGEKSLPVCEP
# Sequence of MASP-2 (CCP1-CCP2-SP) (O00187 445-686): as the sequence (O00187 445-686) above
compound,measurement,setting,value
C[C@H](NC(=O)[C@H](N)CCc1ccccc1)C(=O)NCc1ccc(C(=N)N)cc1 [compound 1024],Ki,MASP-2 (CCP1-CCP2-SP),< 0.5 µM
same,Ki,human α-thrombin,< 0.5 µM
same,H-bond distance to MASP-2 ASP 627 atom OD1,"MASP-2 CCP2-SP; Table A1 (H-Bonds), ASP 627 OD1",2.74
same,H-bond distance to MASP-2 GLY 656 atom N,MASP-2 CCP2-SP; Table A1 (H-Bonds),3.06
same,H-bond distance to MASP-2 SER 628 atom O,"MASP-2 CCP2-SP; Table A1 (H-Bonds), SER 628 O",2.79
same,H-bond distance to MASP-2 SER 654 atom O,MASP-2 CCP2-SP; Table A1 (H-Bonds),2.86
same,H-bond distance to MASP-2 SER 657 atom O,"MASP-2 CCP2-SP; Table A1 (H-Bonds), SER 657 O",2.94
same,"van der Waals contact distance, MASP-2 HIS 483 atom CD2",MASP-2 CCP2-SP; Table A2-1,3.39
same,"van der Waals contact distance, MASP-2 TYR 607 atom CD1",MASP-2 CCP2-SP; Table A2-4,3.9
same,"van der Waals contact distance, MASP-2 amino acid atom to compound atom",MASP-2 CCP2-SP; Table A2-7 continued: CYS 629 (CA),3.75
same,van der Waals contact distance GLY 656 atom C,"MASP-2 CCP2-SP; Table A2-13, MASP-2 GLY 656 C",3.53
same,van der Waals contact distance TRP 655 atom CZ3,"MASP-2 CCP2-SP; Table A2-13, MASP-2 TRP 655 CZ3",3.86
same,van der Waals contact distance TRP 655 atom N,MASP-2 CCP2-SP; Table A2-13,3.78
same,van der Waals contact distance TRP 655 atom O,"MASP-2 CCP2-SP; Table A2-13, MASP-2 TRP 655 O",3.59
same,van der Waals contact distance SER 657 atom C,"MASP-2 CCP2-SP; Table A2-14, MASP-2 SER 657 C, columns c12-c13 (inferred)",3.77
same,"Ligand-pharmacophore element distance, pharmacophore element C2","MASP-2 CCP2-SP; Table A4-1, element C2",0
same,"Ligand-pharmacophore element distance, pharmacophore element C3","MASP-2 CCP2-SP; Table A4-1, element C3",0
same,"Ligand-pharmacophore element distance, pharmacophore element C4","MASP-2 CCP2-SP; Table A4-1, element C4",0
same,"Ligand-pharmacophore element distance, pharmacophore element C5","MASP-2 CCP2-SP; Table A4-1, element C5",0
same,"Ligand-pharmacophore element distance, pharmacophore element C6","MASP-2 CCP2-SP; Table A4-1, element C6",0
same,"Ligand-pharmacophore element distance, pharmacophore element C7","MASP-2 CCP2-SP; Table A4-1, element C7",0
same,"Ligand-pharmacophore element distance, pharmacophore element CA1","MASP-2 CCP2-SP; Table A4-1, element CA1",0.4
same,"Ligand-pharmacophore element distance, pharmacophore element CA2","MASP-2 CCP2-SP; Table A4-1, element CA2",0.33
same,"Ligand-pharmacophore element distance, pharmacophore element CA3","MASP-2 CCP2-SP; Table A4-1, element CA3",0
same,"Ligand-pharmacophore element distance, pharmacophore element CA4","MASP-2 CCP2-SP; Table A4-1, element CA4",0
same,"Ligand-pharmacophore element distance, pharmacophore element CA5","MASP-2 CCP2-SP; Table A4-1, element CA5",0
same,"Ligand-pharmacophore element distance, pharmacophore element CA6","MASP-2 CCP2-SP; Table A4-1, element CA6",0
same,"Ligand-pharmacophore element distance, pharmacophore element H1","MASP-2 CCP2-SP; Table A4-2, element H1",0
same,"Ligand-pharmacophore element distance, pharmacophore element H2","MASP-2 CCP2-SP; Table A4-2, element H2",0
same,"Ligand-pharmacophore element distance, pharmacophore element H3","MASP-2 CCP2-SP; Table A4-2, element H3",4.93
same,"Ligand-pharmacophore element distance, pharmacophore element H4","MASP-2 CCP2-SP; Table A4-2, element H4",3.21
same,"Ligand-pharmacophore element distance, pharmacophore element N1","MASP-2 CCP2-SP; Table A4-2, element N1",1.74
same,"Ligand-pharmacophore element distance, pharmacophore element N2","MASP-2 CCP2-SP; Table A4-2, element N2",0.59
same,"Ligand-pharmacophore element distance, pharmacophore element O1","MASP-2 CCP2-SP; Table A4-2, element O1",0.4
same,"Ligand-pharmacophore element distance, pharmacophore element O2","MASP-2 CCP2-SP; Table A4-2, element O2",0.4
same,"Ligand-pharmacophore element distance, pharmacophore element O3","MASP-2 CCP2-SP; Table A4-2, element O3",0
same,"Ligand-pharmacophore element distance, pharmacophore element O4","MASP-2 CCP2-SP; Table A4-2, element O4",0
same,"d(CA1,N1)",MASP-2 CCP2-SP; [1],3.55
same,"d(CA1,O1)",MASP-2 CCP2-SP; [1],4.37
same,"d(CA1,O2)",MASP-2 CCP2-SP; [1],4.23
same,"d(H4,O1)",MASP-2 CCP2-SP; [1],3.99
same,"d(H4,O2)",MASP-2 CCP2-SP; [1],3.27
same,"d(O1,O2)",MASP-2 CCP2-SP; [1],3.23
same,"d(N2,CA2)",MASP-2 CCP2-SP; [2],6.19
same,"d(O2,H3)",MASP-2 CCP2-SP; [2],5.45
same,"d(O2,N2)",MASP-2 CCP2-SP; [2],2.78
same,"a(CA1, O1, O2)",MASP-2 CCP2-SP; Table A6-1 pharmacophore angle,109.78
same,"a(O1, O2, H4)",MASP-2 CCP2-SP; Table A6-1 pharmacophore angle,128.26
same,"A(N1, CA1, O1) a)","MASP-2 CCP2-SP; Table A6-1 pharmacophore angle, all compounds with protonatable center N1 except Methyl-amino-pyridine",163.32
same,"a(O1, O2, H3)",MASP-2 CCP2-SP; Table A6-2 pharmacophore angle,151.79
same,"a(O1, O2, N2)",MASP-2 CCP2-SP; Table A6-2 pharmacophore angle,136.56
same,"a(O2, N2, CA2)",MASP-2 CCP2-SP; Table A6-2 pharmacophore angle,154.55
same,"Pharmacophore torsion angle a(H4, O1, O2, H3)",MASP-2 CCP2-SP; [3],44.69
same,"Pharmacophore torsion angle a(H4, O1, O2, N2)",MASP-2 CCP2-SP; [3],125.09
same,"Pharmacophore torsion angle a(N1, CA1, O2, H4)",MASP-2 CCP2-SP; [3],−97.21
same,"Pharmacophore torsion angle a(O1, H4, O2, CA1)",MASP-2 CCP2-SP; [3],−63.40
same,"Pharmacophore torsion angle a(O1, O2, N2, CA2)","MASP-2 CCP2-SP; Table A7-2, between pharmacophore elements of the bound compound",139.71
same,Pharmacophore protein distance to MET_658 (first MET_658 column),"MASP-2 CCP2-SP; Table A8-6, 6th residue column, nearest protein atom in cell to the left",1.94
same,Pharmacophore protein distance to MET_658 (second MET_658 column),"MASP-2 CCP2-SP; Table A8-6, 9th residue column, nearest protein atom in cell to the left",3.26
same,Pharmacophore protein distance to GLY_528,MASP-2 CCP2-SP; [4],3.60
same,Pharmacophore protein distance to PHE_529,MASP-2 CCP2-SP; [4],3.20
same,Pharmacophore protein distance to PRO_608,MASP-2 CCP2-SP; [4],3.95
same,Pharmacophore protein distance to SER_611,MASP-2 CCP2-SP; [4],2.54
same,Pharmacophore protein distance to TRP_655,"MASP-2 CCP2-SP; Table A8-6, pharmacophore elements C6, CA3, O3, H1, nearest protein atom in cell to the left",3.53
"C[C@H](NC(=O)[C@H]1C[C@H](Cc2ccccc2)CN1)C(=O)NCc1cnc2c(c1)c(Cl)cn2C [compound 1450, (2R,4S)-4-Benzyl-N—((S)-1-(((3-chloro-1-methyl-1H-pyrrolo[2,3-b]pyridin-5-yl)methyl)amino)-1-oxopropan-2-yl)pyrrolidine-2-carboxamide Dihydrochloride]",Ki,human α-thrombin,2.5 to 10 µM
same,H-bond distance to MASP-2 GLY 656 atom N,MASP-2 CCP2-SP; Table A1 (H-Bonds),3.04
same,H-bond distance to MASP-2 GLY 656 atom O,"MASP-2 CCP2-SP; Table A1 (H-Bonds), GLY 656 O",2.78
same,H-bond distance to MASP-2 SER 654 atom O,MASP-2 CCP2-SP; Table A1 (H-Bonds),2.97
same,"van der Waals contact distance, MASP-2 amino acid atom to compound atom",MASP-2 CCP2-SP; Table A2,3.44
same,"van der Waals contact distance, MASP-2 HIS 483 atom CD2",MASP-2 CCP2-SP; Table A2-1,3.9
same,"van der Waals contact distance, MASP-2 HIS 483 atom NE2",MASP-2 CCP2-SP; Table A2-1,3.88
same,"van der Waals contact distance, MASP-2 GLY 528 atom CA",MASP-2 CCP2-SP; Table A2-2,3.89
same,"van der Waals contact distance, SER 654 C to compound atom",MASP-2 CCP2-SP; Table A2-11,3.81
same,van der Waals contact distance GLY 656 atom CA,"MASP-2 CCP2-SP; Table A2-13, MASP-2 GLY 656 CA",3.75
same,van der Waals contact distance TRP 655 atom N,MASP-2 CCP2-SP; Table A2-13,3.66

# — US12195427B2, “MASP-2 inhibitors and methods of use” (priority 2018, dated 2025)
